The conditions of data set [1]: prior art form of WO 03/016305; cited from earlier work.
For data set [2] the following is noted: prior art form of WO 03/016305; cited from earlier work. This is another data set of the same source.
Data set [3] in a line: Hygroscopicity of crystalline forms of sunitinib malate. The class given is physicochemical. The following applies: crystalline solid form.
The nature of data set [4]: Stability (thermodynamic / polymorphic) of crystalline forms of sunitinib malate. The class given is physicochemical. The following applies: crystalline solid form.

Where two headings read alike, the source gives them in different places.

Turning to `CCN(CC)CCNC(=O)c1c(C)[nH]c(/C=C2\C(=O)Nc3ccc(F)cc32)c1C.O=C(O)CC(O)C(=O)O` [Form II, (Z)—N-[2-(diethylamino)ethyl]-5-(5-fluoro-2-oxo-2,3-dihydro-1H-indole-3-ylidenemethyl)-2,4-dimethyl-1H-pyrrole-3-carboxamide 2(S)-hydroxybutanedioic acid], in data set [1], the hygroscopicity result is given as “hygroscopic”. Moreover, in data set [2], the polymorphic conversion entry is “readily convert to form I” and the thermodynamic stability entry is “thermodynamically unstable”.
Regarding `CCN(CC)CCNC(=O)c1c(C)[nH]c(/C=C2\C(=O)Nc3ccc(F)cc32)c1C.O=C(O)CC(O)C(=O)O` [form III, (Z)—N-[2-(diethylamino)ethyl]-5-(5-fluoro-2-oxo-2,3-dihydro-1H-indole-3-ylidenemethyl)-2,4-dimethyl-1H-pyrrole-3-carboxamide 2(S)-hydroxybutanedioic acid], in data set [3], the hygroscopicity entry is given as “non-hygroscopic”. Also, the stability result in data set [4] is “stable”.

Values taken from patent publication US20110112164A1, “NOVEL POLYMORPHS AND PROCESSES FOR THEIR PREPARATION” (Generics (UK) Limited, priority 2008, published 2011).
